The results in this text go back to ChEMBL document CHEMBL5214887, “Dispirotripiperazine-core compounds, their biological activity with a focus on broad antiviral property, and perspectives in drug design (mini-review)” (Eur J Med Chem, 2021).

In one data set the test system is Human alphaherpesvirus 2. In words: Antiviral activity against HSV-2 infected in African green monkey GMK-AH-1 cells assessed as viral growth inhibition incubated for 73 hrs. In kind it is functional, organism-based. The note with it: Human alphaherpesvirus 2, 73 h.
In data set [1] the test system is Human immunodeficiency virus 1. In words: Antiviral activity against HIV-1 assessed as viral growth inhibition. The format is functional, organism-based.
Data set [2] has as its system Human papillomavirus type 16. In words: Antiviral activity against HPV16 infected in human HEK293T cells assessed as viral growth inhibition incubated for 72 hrs by green fluorescent protein based method. In kind it is functional, organism-based. Conditions: Human papillomavirus 16, HEK-293T.
In data set [3] the test system is Human betaherpesvirus 5. In words: Antiviral activity against ganciclovir resistant HCMV infected in human HELF cells assessed as viral growth inhibition incubated for 8 days. The format is functional, organism-based. The note with it: Human betaherpesvirus 5, HELF, 192 h.
Another data set has as its system Lyssavirus rabies. Nature of the data set: Antiviral activity against radiolabeled Rabies virus infected in bovine MDBK cell at 80 ug/ml incubated for 4 hrs by attachment assay based liquid scintillation counting analysis. The note with it: dose 80 µg/ml. The format is functional.
A short description of data set [4]: Antiviral activity against HPV18 infected in human HEK293T cells assessed as viral growth inhibition incubated for 72 hrs by green fluorescent protein based method. The format is functional, cell-based. The note with it: human papillomavirus 18, HEK-293T.
For a further data set, the system named is Deltapapillomavirus 4. In words: Antiviral activity against BPV1 infected in human HEK293T cells assessed as viral growth inhibition incubated for 72 hrs by green fluorescent protein based method. In kind it is functional, organism-based. The note with it: Deltapapillomavirus 4, HEK-293T.
Data set [5] concerns Human immunodeficiency virus. In words: Antiviral activity against HIV assessed as viral growth inhibition. The format is functional, organism-based. The note with it: Human immunodeficiency virus 1.
For data set [6], the system named is Respiratory syncytial virus. Nature of the data set: Antiviral activity against RSV assessed as viral growth inhibition. The format is functional, organism-based. The note with it: human respiratory syncytial virus.
The test system of data set [7] is Human alphaherpesvirus 1. Nature of the data set: Antiviral activity against acyclovir resistant HSV-1 infected in African green monkey GMK-AH-1 cells assessed as viral growth inhibition incubated for 73 hrs. In kind it is functional, organism-based. The note with it: Human alphaherpesvirus 1, 73 h.
The subject of data set [8] is Human betaherpesvirus 5. Nature of the data set: Antiviral activity against ganciclovir sensitive HCMV infected in human HELF cells assessed as viral growth inhibition incubated for 8 days. In kind it is functional, organism-based. Conditions: Human betaherpesvirus 5, HELF, 192 h.
For data set [9], the system named is Human alphaherpesvirus 1. In words: Antiviral activity against HSV-1 infected in African green monkey GMK-AH-1 cells assessed as viral growth inhibition incubated for 73 hrs by crystal violet staining assay. The format is functional, organism-based. The note with it: Human alphaherpesvirus 1, 73 h.
Data set [10] can be described thus: […] in herpetic encephalitis mouse model assessed as reduction in mortality at 250 mg/kg,po bid for 5 days. The format is organism-based. Details: scale not given: the % may be the effect or the level left. The note with it: in vivo, 120 h, time 5 day.
The subject of data set [11] is Human alphaherpesvirus 1. Nature of the data set: Antiviral activity against HSV-1 assessed as viral growth inhibition. The format is functional, organism-based.
Data set [12] can be described thus: Toxicity in mouse assessed as lethal dose at ip as single dose. In kind it is organism-based. The note with it: in vivo.

One may read the IC50 as the concentration that gives 50% inhibition. Turning to `Cl.Cl.[O-][n+]1onc2ncnc(N3CC[N+]4(CC3)CC[N+]3(CCN(c5ncnc6no[n+]([O-])c56)CC3)CC4)c21`, the IC50 in the data set with Human alphaherpesvirus 2 came out at 10200 nM; in data set [1], 150000 nM; in [2] it was 1400 nM; in the data set with Human betaherpesvirus 5 [3], 150 nM; in data set [4], 700 nM; in the data set on Deltapapillomavirus 4 it was 2600 nM. For the same compound, the IC50 is 1400 nM in data set [5], 7500 nM in data set [6], 8100 nM with Human alphaherpesvirus 1 [7] and 150 nM in the data set with Human betaherpesvirus 5 [8]. In the data set on Lyssavirus rabies, this compound registered an Activity of 95%.

For the compound `Cc1nc(N2CC[N+]3(CC2)CC[N+]2(CCNCC2)CC3)c([N+](=O)[O-])c(N2CC[N+]3(CC2)CC[N+]2(CCNCC2)CC3)n1`, the IC50 in the data set on Human alphaherpesvirus 1 [9] is 1480 nM.

Take `O=C(CCCl)N1CC[N+]2(CC1)CC[N+]1(CCN(C(=O)CCCl)CC1)CC2.[Cl-].[Cl-]`: in data set [10], the Activity is reported as 35%.

Turning to `Cc1nc(N2CCC[N+]3(CC2)CC[N+]2(CCCNCC2)CC3)c([N+](=O)[O-])c(N2CCC[N+]3(CC2)CC[N+]2(CCCNCC2)CC3)n1` (configuration not stated), the results for the IC50 (in the data set on Human alphaherpesvirus 1 [11]; in data set [5]; in data set [6]) were 1970 nM, 4000 nM and greater than 100000 nM, respectively.

With `Cc1nc(N2CC[N+]3(CCC[N+]4(CCNCC4)CC3)CC2)c([N+](=O)[O-])c(N2CC[N+]3(CCC[N+]4(CCNCC4)CC3)CC2)n1`, the IC50 with Human alphaherpesvirus 1 [11] was found to be 1120 nM.

The term LD50 denotes the dose expected to kill half of the subjects tested. On to `O=C(CCBr)N1CC[N+]2(CC1)CC[N+]1(CCN(C(=O)CCBr)CC1)CC2.[Cl-].[Cl-]` [DIBROSPIDIUM CHLORIDE], for which the IC50 in the data set on Human alphaherpesvirus 1 [11] was determined as 66100 nM. Besides, the LD50 in data set [12] turned out to be 1920 mg/kg. Also, the Activity in data set [10] is recorded as 35%.

On to `OC(CCl)CN1CC[N+]2(CC1)CC[N+]1(CCN(CC(O)CCl)CC1)CC2.[Cl-].[Cl-]` (configuration not stated) [PROSPIDIUM CHLORIDE], for which, in the data set on Human alphaherpesvirus 1 [11], the IC50 worked out at 62500 nM. In addition, the LD50 in [12] worked out at 100 mg/kg.
